This assay deals with T1, wild-type HIV-1 protease (Human immunodeficiency virus type 1 group M subtype B, UniProt P04585).
T1 construct: Escherichia coli expressed wild-type HIV-1 protease protein
In words: Assay for Inhibition of Microbial Expressed HIV Protease (peptide substrate cleavage, LC-MS/MS readout). It counts as biochemical. The conditions noted are these: E. coli expressed wild-type HIV-1 protease, mean of at least two independent experiments, read-out: HIV Pr Enzyme HIV1 PR IC50. The gist of the method:
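Cleavage of Val-Ser-Gln-Asn-(β-naphthyl)Ala-Pro-Ile-Val (400 μM) by recombinant HIV-1 protease ([…]) ran 1 h at 30 °C after a 30 min room-temperature inhibitor preincubation in 50 mM sodium acetate pH 5.5. Product peak areas by LC-MS/MS gave inhibition; values average at least two independent runs.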

Usually IC50 stands for the concentration that gives 50% inhibition. Turning to `N=C1NC(CCC2CC2)(c2cc(F)cc(F)c2)C(=O)N1Cc1ccc(C(F)(F)F)c(C(=O)N2CCn3c(nnc3C(F)(F)F)C2)c1` (stereo not drawn) [Compound 82, 5-(2-cyclopropylethyl)-5-(3,5-difluorophenyl)-2-imino-3-[4-(trifluoromethyl)-3-{[3-(trifluoro-methyl)-5,6-dihydro-[1,2,4]triazolo-[4,3-a]pyrazin-7(8H)-yl]carbonyl}-benzyl]imidazolidin-4-one], the IC50 was 13.1 nM.

For `N=C1N[C@](CCCC(F)(F)F)(c2ccc(F)cc2)C(=O)N1Cc1ccc(C(F)(F)F)c(C(=O)N2Cc3cnc(N4CCOCC4)nc3C2)c1` [Compound 83, (5R)-5-(4-fluorophenyl)-2-imino-3-{3-[(2-morpholin-4-yl-5,7-dihydro-6H-pyrrolo[3,4-d]pyrimidin-6-yl)carbonyl]-4-(trifluoromethyl)-benzyl}-5-(4,4,4-trifluorobutyl)imidazolidin-4-one], the IC50 worked out at 13.9 nM.

Consider `Cc1nonc1N1CCN(C(=O)c2cc(CN3C(=N)N[C@](CCCC(F)(F)F)(c4ccc(F)cc4)C3=O)ccc2C(F)(F)F)CC1` [Compound 84, (5R)-5-(4-fluorophenyl)-2-imino-3-[3-{[4-(4-methyl-1,2,5-oxadiazol-3-yl)piperazin-1-yl]carbonyl}-4-(trifluoromethyl)benzyl]-5-(4,4,4-trifluorobutyl)imidazolidin-4-one], for which the IC50 came out at 14.1 nM.

In the case of `N=C1N[C@](CCCC(F)(F)F)(c2ccc(F)cc2)C(=O)N1Cc1ccc(C(F)(F)F)c(C(=O)N2Cc3cnc(NC4CCC4)nc3C2)c1` [Compound 85, (5R)-3-[3-{[2-(cyclobutylamino)-5,7-dihydro-6H-pyrrolo[3,4-d]pyrimidin-6-yl]carbonyl}-4-(trifluoromethyl)benzyl]-5-(4-fluorophenyl)-2-imino-5-(4,4,4-trifluorobutyl)imidazolidin-4-one], the IC50 was found to be 14.4 nM.

With `N=C1N[C@](CCCC(F)(F)F)(c2ccc(F)cc2)C(=O)N1Cc1ccc(C(F)(F)F)c(C(=O)N2Cc3cnc(-c4cccc(F)c4)nc3C2)c1` [Compound 86, (5R)-5-(4-fluorophenyl)-3-[3-{[2-(3-fluorophenyl)-5,7-dihydro-6H-pyrrolo[3,4-d]pyrimidin-6-yl]carbonyl}-4-(trifluoromethyl)-benzyl]-2-imino-5-(4,4,4-trifluorobutyl)imidazolidin-4-one], the IC50 worked out at 14.5 nM.

Turning to `N=C1N[C@](CCCC(F)(F)F)(c2ccc(F)cc2)C(=O)N1Cc1ccc(C(F)(F)F)c(C(=O)N2CCN3C(=O)OCC3C2)c1` (stereo partly drawn) [Compound 87, 7-{[5-{[(4R)-4-(4-fluorophenyl)-2-imino-5-oxo-4-(4,4,4-trifluoro-butyl)imidazolidin-1-yl]methyl}-2-(trifluoromethyl)phenyl]carbonyl}hexahydro[1,3] oxazolo[3,4-a]pyrazin-3-one], the IC50 was 14.8 nM.

As for `N=C1N[C@](CCCC(F)(F)F)(c2ccc(F)cc2)C(=O)N1Cc1ccc(C(F)(F)F)c(C(=O)N2CCN(c3cncnc3)CC2)c1` [Compound 88, (5R)-5-(4-fluorophenyl)-2-imino-3-{3-[(4-pyrimidin-5-ylpiperazin-1-yl)carbonyl]-4-(trifluoromethyl)-benzyl}-5-(4,4,4-trifluorobutyl)-imidazolidin-4-one], the IC50 was determined as 15.2 nM.

As for `N=C1N[C@](CCCC(F)(F)F)(c2ccc(F)cc2)C(=O)N1Cc1ccc(C(F)(F)F)c(C(=O)N2Cc3cnc(-c4ccc(-n5cccn5)nc4)nc3C2)c1` [Compound 89, (5R)-5-(4-fluorophenyl)-2-imino-3-[3-({2-[6-(1H-pyrazol-1-yl)pyridin-3-yl]-5,7-dihydro-6H-pyrrolo[3,4-d]pyrimidin-6-yl}carbonyl)-4-(trifluoromethyl)benzyl]-5-(4,4,4-trifluorobutyl)imidazolidin-4-one], the IC50 came to 15.7 nM.

`CC(C)(O)C(=O)N1CCN(C(=O)c2cc(CN3C(=N)N[C@](CCCC(F)(F)F)(c4ccc(F)cc4)C3=O)ccc2C(F)(F)F)CC1` [Compound 90, (5R)-5-(4-fluorophenyl)-3-[3-{[4-(2-hydroxy-2-methylpropanoyl)-piperazin-1-yl]carbonyl}-4-(trifluoromethyl)benzyl]-2-imino-5-(4,4,4-trifluorobutyl)imidazolidin-4-one]: the IC50 worked out at 15.8 nM.

In the case of `N=C1NC(CCC2CC2)(c2cc(F)cc(F)c2)C(=O)N1Cc1ccc(C(F)(F)F)c(C(=O)N2CCn3c(nnc3C(F)(F)F)C2)c1` (stereo not drawn) [Compound 91, 5-(2-cyclopropylethyl)-5-(3,5-difluorophenyl)-2-imino-3-[4-(trifluoromethyl)-3-{[3-(trifluoro-methyl)-5,6-dihydro[1,2,4]triazolo-[4,3-a]pyrazin-7(8H)-yl]carbonyl}-benzyl]imidazolidin-4-one], the IC50 stood at 16.3 nM.

`CS(=O)(=O)N1CCN(C(=O)c2cc(CN3C(=N)N[C@](CCCC(F)(F)F)(c4ccc(F)cc4)C3=O)ccc2C(F)(F)F)CC1` [Compound 92, (5R)-5-(4-fluorophenyl)-2-imino-3-[3-{[4-(methylsulfonyl)piperazin-1-yl]carbonyl}-4-(trifluoromethyl)-benzyl]-5-(4,4,4-trifluorobutyl)-imidazolidin-4-one]: the IC50 was 17.3 nM.

In the case of `N=C1N[C@](CCC2CC2)(c2ccc(F)cc2)C(=O)N1[C@@H]1CCCCc2ccc(C(=O)N3Cc4nccnc4C3)cc21` [Compound 93, (5R)-5-(2-cyclopropylethyl)-3-[(5R)-3-(5,7-dihydro-6H-pyrrolo-[3,4-b]pyrazin-6-ylcarbonyl)-6,7,8,9-tetrahydro-5H-benzo-[7]annulen-5-yl]-5-(4-fluoro-phenyl)-2-iminoimidazolidin-4-one], the IC50 stood at 18.5 nM.

Take `N=C1N[C@](CCCC(F)(F)F)(c2ccc(F)cc2)C(=O)N1Cc1ccc(C(F)(F)F)c(C(=O)N2Cc3cnc(-c4ccccc4)nc3C2)c1` [Compound 94, (5R)-5-(4-fluorophenyl)-2-imino-3-{3-[(2-phenyl-5,7-dihydro-6H-pyrrolo[3,4-d]pyrimidin-6-yl)carbonyl]-4-(trifluoromethyl)-benzyl}-5-(4,4,4-trifluorobutyl)-imidazolidin-4-one]: the IC50 came out at 19.2 nM.

As to `N=C1N[C@](CCCC(F)(F)F)(c2ccc(F)cc2)C(=O)N1Cc1ccc(C(F)(F)F)c(C(=O)N2Cc3cnc(-c4cccc(-n5nccn5)c4)nc3C2)c1` [Compound 95, (5R)-5-(4-fluorophenyl)-2-imino-3-[3-({2-[3-(2H-1,2,3-triazol-2-yl)phenyl]-5,7-dihydro-6H-pyrrolo-[3,4-d]pyrimidin-6-yl}carbonyl)-4-(trifluoromethyl)benzyl]-5-(4,4,4-trifluorobutyl)imidazolidin-4-one], the IC50 is 19.4 nM.

For the molecule `COC(=O)Nc1ncc2c(n1)CN(C(=O)c1ccc3c(c1)[C@H](N1C(=N)N[C@](CCC(C)C)(c4ccccc4)C1=O)CC3)C2` [Compound 96, methyl [6-({(3R)-3-[(4R)-2-imino-4-(3-methylbutyl)-5-oxo-4-phenylimidazolidin-1-yl]-2,3-dihydro-1H-inden-5-yl}carbonyl)-6,7-dihydro-5H-pyrrolo[3,4-d]pyrimidin-2-yl]carbamate], the IC50 was 20.4 nM.

For the molecule `N=C1N[C@](CCCC(F)(F)F)(c2ccc(F)cc2)C(=O)N1Cc1ccc(C(F)(F)F)c(C(=O)N2Cc3cnc(-c4ccc(F)cc4)nc3C2)c1` [Compound 97, (5R)-5-(4-fluorophenyl)-3-[3-{[2-(4-fluorophenyl)-5,7-dihydro-6H-pyrrolo[3,4-d]pyrimidin-6-yl]carbonyl}-4-(trifluoromethyl)-benzyl]-2-imino-5-(4,4,4-trifluorobutyl)imidazolidin-4-one], the IC50 is 20.5 nM.

For the molecule `N=C1N[C@](CCCC(F)(F)F)(c2ccc(F)cc2)C(=O)N1Cc1ccc(C(F)(F)F)c(C(=O)N2CCn3cnnc3C2)c1` [Compound 98, (5R)-3-[3-(5,6-dihydro[1,2,4]triazolo[4,3-a]pyrazin-7(8H)-ylcarbonyl)-4-(trifluoromethyl)benzyl]-5-(4-fluorophenyl)-2-imino-5-(4,4,4-trifluorobutyl)imidazolidin-4-one], the IC50 is 20.7 nM.

On to `N=C1N[C@](CCCC(F)(F)F)(c2ccc(F)cc2)C(=O)N1Cc1ccc(C(F)(F)F)c(C(=O)N2CCN(c3ccccn3)CC2)c1` [Compound 99, (5R)-5-(4-fluorophenyl)-2-imino-3-{3-[(4-pyridin-2-ylpiperazin-1-yl)carbonyl]-4-(trifluoromethyl)-benzyl}-5-(4,4,4-trifluorobutyl)-imidazolidin-4-one], for which the IC50 stood at 21.4 nM.

Turning to `CC(C)CC[C@]1(c2ccc(F)cc2)NC(=N)N(C(c2ccc(C(F)(F)F)c(C(=O)N3Cc4nccnc4C3)c2)C2CCCC2)C1=O` (stereo partly drawn) [Compound 101, (5R)-3-{cyclopentyl[3-(5,7-dihydro-6H-pyrrolo[3,4-b]pyrazin-6-ylcarbonyl)-4-(trifluoromethyl)-phenyl]methyl}-5-(4-fluorophenyl)-2-imino-5-(3-methylbutyl)-imidazolidin-4-one], the IC50 stood at 23.2 nM.

Take `C=CCOC(=O)N1CCN(C(=O)c2cc(CN3C(=N)N[C@](CCCC(F)(F)F)(c4ccc(F)cc4)C3=O)ccc2C(F)(F)F)CC1` [Compound 102, prop-2-en-1-yl 4-{[5-{[(4R)-4-(4-fluorophenyl)-2-imino-5-oxo-4-(4,4,4-trifluorobutyl)imidazolidin-1-yl]methyl}-2-(trifluoromethyl)-phenyl]carbonyl} piperazine-1-carboxylate]: the IC50 worked out at 23.2 nM.

On to `N=C1N[C@](CCC2CC2)(c2cccc(F)c2)C(=O)N1Cc1ccc(C(F)(F)F)c(C(=O)N2CCn3c(nnc3C(F)(F)F)C2)c1` [Compound 103, (5R)-5-(2-cyclopropylethyl)-5-(3-fluorophenyl)-2-imino-3-[4-(trifluoromethyl)-3-{[3-(trifluoro-methyl)-5,6-dihydro[1,2,4]triazolo-[4,3-a]pyrazin-7(8H)-yl]carbonyl}-benzyl]imidazolidin-4-one], for which the IC50 is 23.8 nM.

Source of the values: US20200069691A1, “HETEROCYCLIC COMPOUNDS AS HIV PROTEASE INHIBITORS” (Merck Sharp & Dohme Corp., priority 2016, published 2020).
